Measured values as given in the kinase profiling compilation of Christmann-Franck et al. (2016).

What was measured:
Test in all cases: KINOMEscan competition binding
Conditions in all cases: compound 10.0 µM
[1] = test system: KIT (human), P10721 [V559D/V654A]
[2] = target: ACVR1B (human) (UniProt P36896)
[3] = target: ICK (human) (UniProt Q9UPZ9)
[4] = target: PIK3C2G (human) (UniProt O75747)
[5] = target: CDKL5 (human) (UniProt O76039)
[6] = target: PRKAA2 (human) (UniProt P54646)
[7] = target: INSRR (human) (UniProt P14616)
[8] = target: NLK (human) (UniProt Q9UBE8)
Sequence of NLK (human) (Q9UBE8 whole entry, looked up): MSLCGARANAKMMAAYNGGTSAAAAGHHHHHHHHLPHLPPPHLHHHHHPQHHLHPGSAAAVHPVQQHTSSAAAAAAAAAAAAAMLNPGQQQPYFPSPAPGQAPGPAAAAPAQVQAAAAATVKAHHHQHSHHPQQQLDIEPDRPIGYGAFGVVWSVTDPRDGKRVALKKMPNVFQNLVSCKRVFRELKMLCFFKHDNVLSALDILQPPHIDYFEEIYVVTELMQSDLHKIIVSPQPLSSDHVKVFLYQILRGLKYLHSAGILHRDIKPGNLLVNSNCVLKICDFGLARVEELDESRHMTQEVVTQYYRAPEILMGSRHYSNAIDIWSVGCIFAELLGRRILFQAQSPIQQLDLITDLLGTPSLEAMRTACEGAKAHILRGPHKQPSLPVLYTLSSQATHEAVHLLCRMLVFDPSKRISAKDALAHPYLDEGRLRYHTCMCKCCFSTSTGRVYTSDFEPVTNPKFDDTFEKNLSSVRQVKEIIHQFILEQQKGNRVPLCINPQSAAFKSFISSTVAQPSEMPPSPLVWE

[9] = target: CSNK1E (human) (UniProt P49674)
[10] = test system: FLT3 (human), P36888 [D835H]
[11] = target: CAMK1G (human) (UniProt Q96NX5)
[12] = target: MAP3K15 (human) (UniProt Q6ZN16)
[13] = target: CIT (human) (UniProt O14578)
[14] = test system: FLT3 (human), P36888 [K663Q]
[15] = target: PRKACB (human) (UniProt P22694)
[16] = target: MAPKAPK2 (human) (UniProt P49137)
Sequence of MAPKAPK2 (human) (P49137 whole entry, looked up): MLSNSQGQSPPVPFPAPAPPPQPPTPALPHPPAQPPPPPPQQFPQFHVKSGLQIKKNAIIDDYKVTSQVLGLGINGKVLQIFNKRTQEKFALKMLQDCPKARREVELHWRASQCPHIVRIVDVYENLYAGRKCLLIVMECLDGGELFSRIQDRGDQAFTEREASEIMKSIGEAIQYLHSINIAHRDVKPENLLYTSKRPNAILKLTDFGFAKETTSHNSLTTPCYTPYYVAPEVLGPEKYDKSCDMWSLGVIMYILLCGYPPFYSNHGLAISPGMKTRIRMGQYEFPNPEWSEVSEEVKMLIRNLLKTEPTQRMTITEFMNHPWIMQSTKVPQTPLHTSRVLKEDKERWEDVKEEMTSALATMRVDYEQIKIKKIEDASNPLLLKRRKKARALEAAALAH

[17] = target: MARK2 (human) (UniProt Q7KZI7)
[18] = target: LCK (human) (UniProt P06239)
Sequence of LCK (human) (P06239 whole entry, looked up): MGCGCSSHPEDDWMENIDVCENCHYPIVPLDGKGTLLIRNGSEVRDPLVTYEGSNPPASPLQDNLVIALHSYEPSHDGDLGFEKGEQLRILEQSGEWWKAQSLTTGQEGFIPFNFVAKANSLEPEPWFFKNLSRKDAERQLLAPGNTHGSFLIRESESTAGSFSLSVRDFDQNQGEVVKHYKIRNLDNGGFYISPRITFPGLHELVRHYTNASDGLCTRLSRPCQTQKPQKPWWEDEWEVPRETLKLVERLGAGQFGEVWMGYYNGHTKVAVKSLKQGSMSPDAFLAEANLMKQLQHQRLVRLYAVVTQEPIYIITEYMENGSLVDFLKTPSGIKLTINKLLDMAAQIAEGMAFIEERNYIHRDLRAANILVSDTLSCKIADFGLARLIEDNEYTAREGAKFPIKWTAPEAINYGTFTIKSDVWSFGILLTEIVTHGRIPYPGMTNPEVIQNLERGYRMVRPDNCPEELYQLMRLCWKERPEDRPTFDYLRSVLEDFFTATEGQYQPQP

[19] = target: PRKG1 (human) (UniProt Q13976)
[20] = target: RAF1 (human) (UniProt P04049)
[21] = target: MAPKAPK5 (human) (UniProt Q8IW41)
[22] = target: MAK (human) (UniProt P20794)
[23] = target: CSNK1G2 (human) (UniProt P78368)
[24] = target: FGR (human) (UniProt P09769)
[25] = target: MYLK2 (human) (UniProt Q9H1R3)
[26] = target: OXSR1 (human) (UniProt O95747)
[27] = target: NIM1 (human) (UniProt Q8IY84)
[28] = target: TYRO3 (human) (UniProt Q06418)
Sequence of TYRO3 (human) (Q06418 whole entry, looked up): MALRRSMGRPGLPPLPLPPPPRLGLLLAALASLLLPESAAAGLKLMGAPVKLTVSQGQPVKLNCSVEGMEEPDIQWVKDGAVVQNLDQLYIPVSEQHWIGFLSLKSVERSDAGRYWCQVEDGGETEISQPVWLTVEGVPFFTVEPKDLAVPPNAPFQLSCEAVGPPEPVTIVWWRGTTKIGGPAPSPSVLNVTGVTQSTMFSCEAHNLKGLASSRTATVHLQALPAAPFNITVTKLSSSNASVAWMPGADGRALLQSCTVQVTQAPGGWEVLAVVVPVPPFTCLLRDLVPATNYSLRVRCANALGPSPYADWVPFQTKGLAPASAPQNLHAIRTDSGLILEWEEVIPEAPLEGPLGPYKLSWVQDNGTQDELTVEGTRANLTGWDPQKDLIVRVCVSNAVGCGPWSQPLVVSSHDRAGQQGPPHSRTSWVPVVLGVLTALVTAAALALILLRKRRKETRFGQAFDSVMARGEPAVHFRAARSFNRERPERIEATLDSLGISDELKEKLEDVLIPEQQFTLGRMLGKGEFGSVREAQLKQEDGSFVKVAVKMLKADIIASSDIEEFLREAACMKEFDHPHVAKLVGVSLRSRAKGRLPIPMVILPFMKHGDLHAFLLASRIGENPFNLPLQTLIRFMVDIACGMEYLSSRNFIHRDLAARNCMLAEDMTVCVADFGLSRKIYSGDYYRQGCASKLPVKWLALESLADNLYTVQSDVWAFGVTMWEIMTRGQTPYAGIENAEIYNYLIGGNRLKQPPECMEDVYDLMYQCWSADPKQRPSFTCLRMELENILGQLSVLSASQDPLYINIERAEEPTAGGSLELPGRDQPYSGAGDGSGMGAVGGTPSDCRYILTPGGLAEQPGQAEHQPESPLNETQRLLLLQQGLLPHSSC

[29] = target: SRPK3 (human) (UniProt Q9UPE1)
[30] = test system: ABL1 (human), P00519 [T315I]
[31] = target: CDK5 (human) (UniProt Q00535)
[32] = target: RIPK1 (human) (UniProt Q13546)
[33] = target: SRPK2 (human) (UniProt P78362)
Sequence of SRPK2 (human) (P78362 whole entry, looked up): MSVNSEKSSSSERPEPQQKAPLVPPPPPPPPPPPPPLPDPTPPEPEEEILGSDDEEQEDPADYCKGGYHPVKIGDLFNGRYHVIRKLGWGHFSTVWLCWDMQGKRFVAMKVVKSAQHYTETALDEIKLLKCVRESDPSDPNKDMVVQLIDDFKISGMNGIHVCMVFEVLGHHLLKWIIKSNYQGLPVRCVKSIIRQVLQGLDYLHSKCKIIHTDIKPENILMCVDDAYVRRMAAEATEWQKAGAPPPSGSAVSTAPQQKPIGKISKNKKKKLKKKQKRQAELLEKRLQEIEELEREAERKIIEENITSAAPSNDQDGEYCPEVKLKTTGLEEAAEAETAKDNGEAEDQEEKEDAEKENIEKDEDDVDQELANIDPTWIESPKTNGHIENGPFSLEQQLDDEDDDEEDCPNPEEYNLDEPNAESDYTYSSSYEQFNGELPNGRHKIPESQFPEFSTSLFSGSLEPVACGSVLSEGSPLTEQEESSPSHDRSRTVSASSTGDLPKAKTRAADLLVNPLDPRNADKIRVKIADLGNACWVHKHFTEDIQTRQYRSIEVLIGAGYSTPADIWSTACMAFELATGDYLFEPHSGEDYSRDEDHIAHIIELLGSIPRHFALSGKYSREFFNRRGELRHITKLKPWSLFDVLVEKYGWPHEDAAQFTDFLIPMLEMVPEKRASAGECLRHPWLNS

[34] = test system: KIT (human), P10721 [V559D]
Sequence of KIT (human), P10721 [V559D] (P10721 whole entry V559D, looked up): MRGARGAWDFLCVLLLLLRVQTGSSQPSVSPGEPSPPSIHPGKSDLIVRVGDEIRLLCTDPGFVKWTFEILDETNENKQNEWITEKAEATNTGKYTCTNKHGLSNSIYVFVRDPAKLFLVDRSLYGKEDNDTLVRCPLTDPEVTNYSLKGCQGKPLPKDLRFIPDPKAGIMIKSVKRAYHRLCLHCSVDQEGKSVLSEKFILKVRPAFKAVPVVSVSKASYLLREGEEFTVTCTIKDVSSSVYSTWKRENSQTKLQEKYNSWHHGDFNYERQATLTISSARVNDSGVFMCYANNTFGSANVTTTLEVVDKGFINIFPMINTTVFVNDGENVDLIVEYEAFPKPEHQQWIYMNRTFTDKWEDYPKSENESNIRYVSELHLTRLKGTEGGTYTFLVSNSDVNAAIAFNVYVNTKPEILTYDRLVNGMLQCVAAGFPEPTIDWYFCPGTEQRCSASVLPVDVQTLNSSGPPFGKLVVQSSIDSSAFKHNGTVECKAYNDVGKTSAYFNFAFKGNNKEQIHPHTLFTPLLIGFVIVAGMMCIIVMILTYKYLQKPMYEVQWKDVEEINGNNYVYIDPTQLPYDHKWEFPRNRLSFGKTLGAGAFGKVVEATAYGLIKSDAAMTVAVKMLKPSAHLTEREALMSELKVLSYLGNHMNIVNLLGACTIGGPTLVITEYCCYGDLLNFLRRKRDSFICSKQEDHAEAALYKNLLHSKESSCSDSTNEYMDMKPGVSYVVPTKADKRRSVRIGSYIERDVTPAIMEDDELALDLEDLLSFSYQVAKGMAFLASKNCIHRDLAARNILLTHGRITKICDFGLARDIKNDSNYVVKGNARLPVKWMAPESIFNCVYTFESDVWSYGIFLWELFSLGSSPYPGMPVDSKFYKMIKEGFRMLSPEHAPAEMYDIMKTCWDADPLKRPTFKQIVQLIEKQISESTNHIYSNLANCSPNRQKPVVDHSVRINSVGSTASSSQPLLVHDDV

[35] = test system: PIK3CA (human), P42336 [H1047Y]
[36] = target: CAMK2D (human) (UniProt Q13557)
[37] = target: PHKG2 (human) (UniProt P15735)
Sequence of PHKG2 (human) (P15735 whole entry, looked up): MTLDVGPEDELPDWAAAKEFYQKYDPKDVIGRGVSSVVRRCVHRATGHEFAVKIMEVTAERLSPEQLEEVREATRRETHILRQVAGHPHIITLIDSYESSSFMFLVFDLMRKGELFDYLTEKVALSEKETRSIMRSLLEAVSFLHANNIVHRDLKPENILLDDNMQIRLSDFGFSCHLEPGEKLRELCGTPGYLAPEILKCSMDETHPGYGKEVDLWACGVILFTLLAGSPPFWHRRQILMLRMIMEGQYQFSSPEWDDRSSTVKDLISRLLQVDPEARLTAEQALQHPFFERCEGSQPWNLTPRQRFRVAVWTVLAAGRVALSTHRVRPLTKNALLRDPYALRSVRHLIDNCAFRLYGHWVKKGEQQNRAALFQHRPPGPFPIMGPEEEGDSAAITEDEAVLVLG

[38] = target: SIK1 (human) (UniProt P57059)
[39] = target: ROCK1 (human) (UniProt Q13464)
[40] = target: MAP3K10 (human) (UniProt Q02779)
[41] = target: STK33 (human) (UniProt Q9BYT3)

Sequence of PRKAA2 (human) (P54646 whole entry, looked up): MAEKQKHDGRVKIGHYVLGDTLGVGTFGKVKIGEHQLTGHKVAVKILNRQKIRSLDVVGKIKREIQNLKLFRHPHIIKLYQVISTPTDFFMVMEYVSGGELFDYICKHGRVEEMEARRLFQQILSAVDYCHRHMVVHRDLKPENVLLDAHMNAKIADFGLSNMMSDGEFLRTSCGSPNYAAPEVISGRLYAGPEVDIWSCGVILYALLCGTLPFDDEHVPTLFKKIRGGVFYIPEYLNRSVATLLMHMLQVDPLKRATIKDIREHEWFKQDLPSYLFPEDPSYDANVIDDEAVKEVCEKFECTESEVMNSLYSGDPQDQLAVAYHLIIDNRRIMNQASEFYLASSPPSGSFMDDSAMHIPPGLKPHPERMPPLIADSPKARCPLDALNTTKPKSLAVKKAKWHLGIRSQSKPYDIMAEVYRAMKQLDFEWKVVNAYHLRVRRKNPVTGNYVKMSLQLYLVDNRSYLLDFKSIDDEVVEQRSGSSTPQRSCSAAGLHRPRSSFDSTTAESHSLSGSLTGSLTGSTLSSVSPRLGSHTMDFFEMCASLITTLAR
Sequence of KIT (human), P10721 [V559D/V654A] (P10721 whole entry V559D/V654A, looked up): as the sequence (P10721 whole entry V559D, looked up) above, with V654A counted along it

O=C1Nc2cc(Br)ccc2/C1=C1/Nc2ccccc2/C1=N\O was tested, and the kinase still bound, per cent of control [1] was 0.9%, the kinase still bound, per cent of control [2] was 77% and the kinase still bound, per cent of control [3] was 0.1%. The kinase still bound, per cent of control [4] was 100%, the kinase still bound, per cent of control [5] was 7.4% and the kinase still bound, per cent of control [6] was 4.2%. For the same compound, the kinase still bound, per cent of control [7] was 47%, the kinase still bound, per cent of control [8] was 88% and the kinase still bound, per cent of control [9] was 18%. For the same compound, the kinase still bound, per cent of control [10] was 1.8%, the kinase still bound, per cent of control [11] was 42% and the kinase still bound, per cent of control [12] was 43%. For the same compound, the kinase still bound, per cent of control [13] was 29%, the kinase still bound, per cent of control [14] was 0% and the kinase still bound, per cent of control [15] was 100%. It also gave a kinase still bound, per cent of control [16] of 100%, a kinase still bound, per cent of control [17] of 19% and a kinase still bound, per cent of control [18] of 4.8%. It also gave a kinase still bound, per cent of control [19] of 100%, a kinase still bound, per cent of control [20] of 90% and a kinase still bound, per cent of control [21] of 100%. The kinase still bound, per cent of control [22] was 0.8%, the kinase still bound, per cent of control [23] was 78% and the kinase still bound, per cent of control [24] was 1.4%. For the same compound, the kinase still bound, per cent of control [25] was 3%, the kinase still bound, per cent of control [26] was 58% and the kinase still bound, per cent of control [27] was 85%. It also gave a kinase still bound, per cent of control [28] of 91%, a kinase still bound, per cent of control [29] of 0.25% and a kinase still bound, per cent of control [30] of 0.65%. The kinase still bound, per cent of control [31] was 9.5%, the kinase still bound, per cent of control [32] was 2.4% and the kinase still bound, per cent of control [33] was 5.8%. It also gave a kinase still bound, per cent of control [34] of 0%, a kinase still bound, per cent of control [35] of 100% and a kinase still bound, per cent of control [36] of 2.1%. The kinase still bound, per cent of control [37] was 5.6%, the kinase still bound, per cent of control [38] was 2.6% and the kinase still bound, per cent of control [39] was 61%. For the same compound, the kinase still bound, per cent of control [40] was 100% and the kinase still bound, per cent of control [41] was 11%.
